Measured values: patent publication US20120156771A1, “FUNCTIONAL DISRUPTION OF AN IMMUNOGLOBULIN GENE IN AN AVIAN EMBRYONIC STEM CELL” (Origen Therapeutics, Inc., priority 2002, published 2012)

System: chicken embryonic stem cells
Assay: Titration kill curve: morphology of cES cells under puromycin or neomycin selection
Assay type: cell-based
Set-up: key to Morphology of cES cells: ES: ES cells are present.; diff: ES cells are differentiated.; gone: no morphologically recognizable cells are present
Experimental: In a preferred embodiment, the concentration of puromycin required for selecting transfected cells is calculated as a titration kill curve. Titration kill curves for chicken embryonic stem cells are established by exposing cells in culture to puromycin concentrations varying from 0.0 to 1.0 μg/ml for 10 days (Table 7) and neomycin concentrations varying from 0.0 to 200 μg/ml (Table 8). The medium is changed every 2 days and fresh puromycin or neomycin is added. […] Puromycin concentrations of 0.3-1.0 μg/ml are used for selection of the transfected cultures. Neomycin concentrations over 40 μg/ml eliminated all cES cells within 7 days (Table 8).

In the case of `COc1ccc(C[C@H](N)C(=O)N[C@H]2[C@@H](O)[C@H](n3cnc4c(N(C)C)ncnc43)O[C@@H]2CO)cc1` [puromycin], the “Presence of ES cells in wells” value (0.3 μg/ml puromycin, after 3 changes of medium with fresh puromycin over a six day period) is reported as “absent from all wells”, the “Morphology of cES cells” value (puromycin 0.1 μg/ml, day 1 under selection) is reported as “ES” and the “Morphology of cES cells” value (puromycin 0.1 μg/ml, day 2 under selection) is reported as “ES”. For the same molecule, the “Morphology of cES cells” value (puromycin 0.1 μg/ml, day 3 under selection) was “ES”, the “Morphology of cES cells” value (puromycin 0.1 μg/ml, day 4 under selection) was “ES” and the “Morphology of cES cells” value (puromycin 0.1 μg/ml, day 5 under selection) was “ES”. For the same molecule, the “Morphology of cES cells” value (puromycin 0.1 μg/ml, day 6 under selection) was “ES”, the “Morphology of cES cells” value (puromycin 0.1 μg/ml, day 7 under selection) was “ES” and the “Morphology of cES cells” value (puromycin 0.1 μg/ml, day 8 under selection) was “ES”. For the same molecule, the “Morphology of cES cells” value (puromycin 0.1 μg/ml, day 9 under selection) was “ES”, the “Morphology of cES cells” value (puromycin 0.1 μg/ml, day 10 under selection) was “ES” and the “Morphology of cES cells” value (puromycin 0.2 μg/ml, day 1 under selection) was “ES”. The “Morphology of cES cells” value (puromycin 0.2 μg/ml, day 2 under selection) was “ES”, the “Morphology of cES cells” value (puromycin 0.2 μg/ml, day 3 under selection) was “ES” and the “Morphology of cES cells” value (puromycin 0.2 μg/ml, day 4 under selection) was “ES”. The “Morphology of cES cells” value (puromycin 0.2 μg/ml, day 5 under selection) was “ES”, the “Morphology of cES cells” value (puromycin 0.2 μg/ml, day 6 under selection) was “ES” and the “Morphology of cES cells” value (puromycin 0.2 μg/ml, day 7 under selection) was “ES”. For the same molecule, the “Morphology of cES cells” value (puromycin 0.2 μg/ml, day 8 under selection) was “ES”, the “Morphology of cES cells” value (puromycin 0.2 μg/ml, day 9 under selection) was “ES” and the “Morphology of cES cells” value (puromycin 0.2 μg/ml, day 10 under selection) was “ES”. The “Morphology of cES cells” value (puromycin 0.25 μg/ml, day 1 under selection) was “ES”, the “Morphology of cES cells” value (puromycin 0.25 μg/ml, day 2 under selection) was “ES” and the “Morphology of cES cells” value (puromycin 0.25 μg/ml, day 3 under selection) was “ES”. For the same molecule, the “Morphology of cES cells” value (puromycin 0.25 μg/ml, day 4 under selection) was “ES”, the “Morphology of cES cells” value (puromycin 0.25 μg/ml, day 5 under selection) was “ES” and the “Morphology of cES cells” value (puromycin 0.25 μg/ml, day 6 under selection) was “diff”. The “Morphology of cES cells” value (puromycin 0.25 μg/ml, day 7 under selection) was “diff”, the “Morphology of cES cells” value (puromycin 0.3 μg/ml, day 1 under selection) was “ES” and the “Morphology of cES cells” value (puromycin 0.3 μg/ml, day 2 under selection) was “ES”. For the same molecule, the “Morphology of cES cells” value (puromycin 0.3 μg/ml, day 3 under selection) was “diff”, the “Morphology of cES cells” value (puromycin 0.3 μg/ml, day 6 under selection) was “gone” and the “Morphology of cES cells” value (puromycin 0.3 μg/ml, day 7 under selection) was “gone”. The “Morphology of cES cells” value (puromycin 0.3 μg/ml, day 8 under selection) was “gone”, the “Morphology of cES cells” value (puromycin 0.3 μg/ml, day 9 under selection) was “gone” and the “Morphology of cES cells” value (puromycin 0.3 μg/ml, day 10 under selection) was “gone”. The “Morphology of cES cells” value (puromycin 0.4 μg/ml, day 1 under selection) was “ES”, the “Morphology of cES cells” value (puromycin 0.4 μg/ml, day 2 under selection) was “diff” and the “Morphology of cES cells” value (puromycin 0.4 μg/ml, day 3 under selection) was “gone”. For the same molecule, the “Morphology of cES cells” value (puromycin 0.4 μg/ml, day 4 under selection) was “gone”, the “Morphology of cES cells” value (puromycin 0.4 μg/ml, day 5 under selection) was “gone” and the “Morphology of cES cells” value (puromycin 0.4 μg/ml, day 6 under selection) was “gone”. The “Morphology of cES cells” value (puromycin 0.4 μg/ml, day 7 under selection) was “gone”, the “Morphology of cES cells” value (puromycin 0.4 μg/ml, day 8 under selection) was “gone” and the “Morphology of cES cells” value (puromycin 0.4 μg/ml, day 9 under selection) was “gone”. For the same molecule, the “Morphology of cES cells” value (puromycin 0.4 μg/ml, day 10 under selection) was “gone”, the “Morphology of cES cells” value (puromycin 0.5 μg/ml, day 1 under selection) was “diff” and the “Morphology of cES cells” value (puromycin 0.5 μg/ml, day 2 under selection) was “gone”. The “Morphology of cES cells” value (puromycin 0.5 μg/ml, day 3 under selection) was “gone”, the “Morphology of cES cells” value (puromycin 0.5 μg/ml, day 4 under selection) was “gone” and the “Morphology of cES cells” value (puromycin 0.5 μg/ml, day 5 under selection) was “gone”. The “Morphology of cES cells” value (puromycin 0.5 μg/ml, day 6 under selection) was “gone”, the “Morphology of cES cells” value (puromycin 0.5 μg/ml, day 7 under selection) was “gone” and the “Morphology of cES cells” value (puromycin 0.5 μg/ml, day 8 under selection) was “gone”. For the same molecule, the “Morphology of cES cells” value (puromycin 0.5 μg/ml, day 9 under selection) was “gone”, the “Morphology of cES cells” value (puromycin 0.5 μg/ml, day 10 under selection) was “gone” and the “Morphology of cES cells” value (puromycin 0.6 μg/ml, day 1 under selection) was “diff”. The “Morphology of cES cells” value (puromycin 0.6 μg/ml, day 2 under selection) was “gone”, the “Morphology of cES cells” value (puromycin 0.6 μg/ml, day 3 under selection) was “gone” and the “Morphology of cES cells” value (puromycin 0.6 μg/ml, day 4 under selection) was “gone”. The “Morphology of cES cells” value (puromycin 0.6 μg/ml, day 5 under selection) was “gone”, the “Morphology of cES cells” value (puromycin 0.6 μg/ml, day 6 under selection) was “gone” and the “Morphology of cES cells” value (puromycin 0.6 μg/ml, day 7 under selection) was “gone”. The “Morphology of cES cells” value (puromycin 0.6 μg/ml, day 8 under selection) was “gone”, the “Morphology of cES cells” value (puromycin 0.6 μg/ml, day 9 under selection) was “gone” and the “Morphology of cES cells” value (puromycin 0.6 μg/ml, day 10 under selection) was “gone”. For the same molecule, the “Morphology of cES cells” value (puromycin 0.7 μg/ml, day 1 under selection) was “diff”, the “Morphology of cES cells” value (puromycin 0.7 μg/ml, day 2 under selection) was “gone” and the “Morphology of cES cells” value (puromycin 0.7 μg/ml, day 3 under selection) was “gone”. For the same molecule, the “Morphology of cES cells” value (puromycin 0.7 μg/ml, day 4 under selection) was “gone”, the “Morphology of cES cells” value (puromycin 0.7 μg/ml, day 5 under selection) was “gone” and the “Morphology of cES cells” value (puromycin 0.7 μg/ml, day 6 under selection) was “gone”. The “Morphology of cES cells” value (puromycin 0.7 μg/ml, day 7 under selection) was “gone”, the “Morphology of cES cells” value (puromycin 0.7 μg/ml, day 8 under selection) was “gone” and the “Morphology of cES cells” value (puromycin 0.7 μg/ml, day 9 under selection) was “gone”. For the same molecule, the “Morphology of cES cells” value (puromycin 0.7 μg/ml, day 10 under selection) was “gone”, the “Morphology of cES cells” value (puromycin 0.8 μg/ml, day 1 under selection) was “gone” and the “Morphology of cES cells” value (puromycin 0.8 μg/ml, day 2 under selection) was “gone”. The “Morphology of cES cells” value (puromycin 0.8 μg/ml, day 3 under selection) was “gone”, the “Morphology of cES cells” value (puromycin 0.8 μg/ml, day 4 under selection) was “gone” and the “Morphology of cES cells” value (puromycin 0.8 μg/ml, day 5 under selection) was “gone”. The “Morphology of cES cells” value (puromycin 0.8 μg/ml, day 6 under selection) was “gone”, the “Morphology of cES cells” value (puromycin 0.8 μg/ml, day 7 under selection) was “gone” and the “Morphology of cES cells” value (puromycin 0.8 μg/ml, day 8 under selection) was “gone”. For the same molecule, the “Morphology of cES cells” value (puromycin 0.8 μg/ml, day 9 under selection) was “gone” and the “Morphology of cES cells” value (puromycin 0.8 μg/ml, day 10 under selection) was “gone”.
